For 35 compounds, IC50 and EC50 results are on record in patent publication US9393232B2 (BeiGene, Ltd., priority 2013, dated 2016).

The target of experiment [1] is Recombinant human BRD4(1-477) (Homo sapiens (Human), UniProt O60885). Description: BRD4 TR-FRET biochemical IC50 assay. The experiment is classed as binding. To be noted: TR-FRET, tetra-acetylated histone peptide; read-out: BRD4 IC50. (In general: TR-FRET usually uses a lanthanide donor and a delayed reading to cut background.)
The test system of a further experiment is MV4-11. Kind of experiment: MV4-11 (3 Days) EC50. The experiment is classed as cell-based. To be noted: Homo sapiens.

`Cc1ccsc1C1(O)C(=O)Nc2ccc(-c3c(C)noc3C)cc21` (stereo not shown) [Compound 1.13, 5-(3,5-dimethylisoxazol-4-yl)-3-hydroxy-3-(3-methylthiophen-2-yl)indolin-2-one]: the IC50 (usually the concentration that inhibits the measured activity by half) in experiment [1] was found to be 560 nM. In addition, the concentration for a half-maximal effect (EC50) – broadly, the concentration at which the effect is half-maximal – in the experiment on MV4-11 (72 h) stood at 746 nM.
Take `Cc1noc(C)c1-c1ccc2c(c1)C(N[C@@H](CO)C(C)C)(C1CCCCC1)C(=O)N2` (single isomer, unassigned) [Compound 2.20b]: the IC50 in experiment [1] stood at 350 nM. In the experiment with MV4-11 (MV4-11, 72 h), this compound displayed a concentration giving a half-maximal response (EC50) of 377 nM.
The corresponding values for `Cc1noc(C)c1-c1ccc2c(c1)C(CCCN1CCNCC1)(c1ccccc1)C(=O)N2` (stereo not shown) [Compound 3.8, 5-(3,5-Dimethylisoxazol-4-yl)-3-phenyl-3-(3-(piperazin-1-yl)propyl)indolin-2-one] are 51 nM and 62 nM.
Taken in the same sequence, the figures for `Cc1noc(C)c1-c1ccc2c(c1)C(OCCO)(c1ccccc1)C(=O)N2` (stereo not shown) [Compound 1.32, 5-(3,5-Dimethylisoxazol-4-yl)-3-(2-hydroxyethoxy)-3-phenylindolin-2-one] were 79 nM and 82 nM.
The corresponding values for `Cc1noc(C)c1-c1ccc2c(c1)C(c1ccccc1)(N1CCNCC1)C(=O)N2` (stereo not shown) [Compound 2.38, 5-(3,5-dimethylisoxazol-4-yl)-3-phenyl-3-(piperazin-1-yl)indolin-2-one] are 120 nM and 504 nM.
As to `Cc1noc(C)c1-c1ccc2c(c1)C(CCO)(c1ccccc1)C(=O)N2` (stereo not shown) [Compound 3.5, 5-(3,5-Dimethylisoxazol-4-yl)-3-(2-hydroxyethyl)-3-phenylindolin-2-one], the IC50 in experiment [1] was found to be 120 nM. Moreover, the EC50 in the experiment with MV4-11 (MV4-11, 72 h) is 140 nM.
Take `Cc1noc(C)c1-c1ccc2c(c1)C(O)(c1ccsc1)C(=O)N2` (stereo not shown) [Compound 4.1, 5-(3,5-Dimethylisoxazol-4-yl)-3-hydroxy-3-(thiophen-3-yl)indolin-2-one]: in experiment [1], the concentration for half-maximal inhibition (IC50) came to 100 nM. This compound had an EC50 with MV4-11 (72 h) of 140 nM.
For `Cc1noc(C)c1-c1ccc2c(c1)C(NC[C@@H](C)O)(c1ccccc1)C(=O)N2` (single isomer, unassigned) [Compound 2.13b], the IC50 in experiment [1] came out at 81 nM. This compound gave an EC50 in the experiment on MV4-11 (MV4-11, 72 h) of 140 nM.
As for `Cc1noc(C)c1-c1ccc2c(c1)C(NCCO)(C1CCCCC1)C(=O)N2` (stereo not shown) [Compound 2.18, 3-cyclohexyl-5-(3,5-dimethylisoxazol-4-yl)-3-(2-hydroxyethylamino)indolin-2-one], the IC50 in experiment [1] came out at 85 nM. Further, in the experiment with MV4-11 (MV4-11, 72 h), the midpoint of the response, the EC50, lay at 204 nM.
Taken in the same sequence, the figures for `Cc1noc(C)c1-c1ccc2c(c1)C(NC(C)C)(C1CCCCC1)C(=O)N2` (stereo not shown) [Compound 2.27, 3-cyclohexyl-5-(3,5-dimethylisoxazol-4-yl)-3-(isopropylamino)indolin-2-one] were 85 nM and 833 nM.
The corresponding values for `CC#CC1(O)C(=O)Nc2ccc(-c3c(C)noc3C)cc21` (stereo not shown) [Compound 1.22, 5-(3,5-dimethylisoxazol-4-yl)-3-hydroxy-3-(prop-1-ynyl)indolin-2-one] are 220 nM and 478 nM.
In the case of `Cc1noc(C)c1-c1ccc2c(c1)C(NCCO)(C1CCCC1)C(=O)N2` (stereo not shown) [Compound 2.35, 3-cyclopentyl-5-(3,5-dimethylisoxazol-4-yl)-3-(2-hydroxyethylamino)indolin-2-one], in experiment [1], the IC50 was 130 nM. In the experiment on MV4-11 (MV4-11, 72 h), this compound registered a half-maximal effective concentration (EC50) of 324 nM.
On to `Cc1noc(C)c1-c1ccc2c(c1)C(c1ccccc1)(N1CC(O)C1)C(=O)N2` (stereo not shown) [Compound 2.58, 5-(3,5-Dimethylisoxazol-4-yl)-3-(3-hydroxyazetidin-1-yl)-3-phenylindolin-2-one], for which the IC50 in experiment [1] turned out to be 78 nM. In the experiment on MV4-11 (MV4-11, 72 h), this compound registered an EC50 of 258 nM.
For `Cc1noc(C)c1-c1ccc2c(c1)C(c1ccccc1)(N1CCCCC1)C(=O)N2` (stereo not shown) [Compound 2.3, 5-(3,5-dimethylisoxazol-4-yl)-3-phenyl-3-(piperidin-1-yl)indolin-2-one], the IC50 in experiment [1] came to 84 nM. Further, the EC50 with MV4-11 (MV4-11, 72 h) stood at 542 nM.
The corresponding values for `Cc1noc(C)c1-c1ccc2c(c1)C(N[C@H](CO)C(C)C)(C1CCCCC1)C(=O)N2` (single isomer, unassigned) [Compound 2.19b] are 170 nM and 282 nM.
In the case of `Cc1noc(C)c1-c1ccc2c(c1)C(O)(c1ccc(F)cc1)C(=O)N2` (stereo not shown) [Compound 1.4, 5-(3,5-dimethylisoxazol-4-yl)-3-(4-fluorophenyl)-3-hydroxyindolin-2-one], the IC50 in experiment [1] was 100 nM. For the same compound, in the experiment on MV4-11 (72 h), a half-maximal effect (EC50) was put at 181 nM.
As to `COC(=O)[C@@H]1C[C@@H](O)CN1C1(c2ccccc2)C(=O)Nc2ccc(-c3c(C)noc3C)cc21` (single isomer, unassigned) [Compound 2.50a], the IC50 in experiment [1] is 460 nM. The concentration for a half-maximal effect (EC50) with MV4-11 (MV4-11, 72 h) was determined as 681 nM.
The corresponding values for `Cc1noc(C)c1-c1ccc2c(c1)C(NC(=O)CN(C)C)(c1ccccc1)C(=O)N2` (stereo not shown) [Compound 6.0, 2-(Dimethylamino)-N-(5-(3,5-dimethylisoxazol-4-yl)-2-oxo-3-phenylindolin-3-yl)acetamide] are 320 nM and 746 nM.
On to `Cc1noc(C)c1-c1ccc2c(c1)C(O)(C1CCC1)C(=O)N2` (stereo not shown) [Compound 1.18, 3-cyclobutyl-5-(3,5-dimethylisoxazol-4-yl)-3-hydroxyindolin-2-one], for which, in experiment [1], the half-inhibitory concentration (IC50) was found to be 510 nM. In addition, the 50% effective concentration (EC50) in the experiment on MV4-11 (72 h) was determined as 1140 nM.
Consider `Cc1noc(C)c1-c1ccc2c(c1)C(Cl)(c1ccccc1)C(=O)N2` (stereo not shown) [Compound 1.31, 3-Chloro-5-(3,5-dimethylisoxazol-4-yl)-3-phenylindolin-2-one], for which the IC50 in experiment [1] came to 58 nM. In the experiment on MV4-11 (MV4-11, 72 h), this compound yielded an EC50 of 152 nM.
The corresponding values for `Cc1noc(C)c1-c1ccc2c(c1)C(CCCN1CCOCC1)(c1ccccc1)C(=O)N2` (stereo not shown) [Compound 3.6, 5-(3,5-dimethylisoxazol-4-yl)-3-(3-morpholinopropyl)-3-phenylindolin-2-one] are 100 nM and 270 nM.
Take `Cc1noc(C)c1-c1ccc2c(c1)C(O)(c1ccccc1)C(=O)N2` (single isomer, unassigned) [Compound 1.1a, 5-(3,5-dimethylisoxazol-4-yl)-3-hydroxy-3-phenylindolin-2-one]: the IC50 in experiment [1] is 35 nM. For the same compound, the concentration for a half-maximal effect (EC50) in the experiment with MV4-11 (72 h) was determined as 58 nM.
In the case of `Cc1noc(C)c1-c1ccc2c(c1)C(O)(c1ccc(Cl)cc1)C(=O)N2` (stereo not shown) [Compound 1.2, 3-(4-chlorophenyl)-5-(3,5-dimethylisoxazol-4-yl)-3-hydroxyindolin-2-one], the IC50 in experiment [1] turned out to be 260 nM. This compound gave a concentration for a half-maximal effect (EC50) with MV4-11 (72 h) of 364 nM.
Regarding `Cc1noc(C)c1-c1ccc2c(c1)C(N[C@@H](C)CO)(C1CCCCC1)C(=O)N2` (stereo partly drawn) [Compound 2.23, 3-cyclohexyl-5-(3,5-dimethylisoxazol-4-yl)-3-((S)-1-hydroxypropan-2-ylamino)indolin-2-one], in experiment [1], the IC50 was 160 nM. This compound also displayed a half-maximal effective concentration (EC50) in the experiment on MV4-11 (MV4-11, 72 h) of 371 nM.
With `Cc1noc(C)c1-c1ccc2c(c1)C(C1CCCCC1)(N1CCNCC1)C(=O)N2` (stereo not shown) [Compound 2.39], the half-inhibitory concentration (IC50) in experiment [1] is 76 nM. Further, the EC50 in the experiment on MV4-11 (MV4-11, 72 h) was determined as 365 nM.
The corresponding values for `Cc1noc(C)c1-c1ccc2c(c1)C(NCCO)(c1ccccc1)C(=O)N2` (stereo not shown) [Compound 2.1, 5-(3,5-dimethylisoxazol-4-yl)-3-(2-hydroxyethylamino)-3-phenylindolin-2-one] are 70 nM and 78 nM.
In the case of `Cc1noc(C)c1-c1ccc2c(c1)C(O)(C1CCCCC1)C(=O)N2` (stereo not shown) [Compound 1.15, 3-cyclohexyl-5-(3,5-dimethylisoxazol-4-yl)-3-hydroxyindolin-2-one], the 50% inhibitory concentration (IC50) in experiment [1] came out at 77 nM. This compound also displayed a concentration giving a half-maximal response (EC50) with MV4-11 (72 h) of 183 nM.
The corresponding values for `Cc1noc(C)c1-c1ccc2c(c1)C(O)(c1ccc(F)c(F)c1)C(=O)N2` (stereo not shown) [Compound 1.8, 3-(3,4-difluorophenyl)-5-(3,5-dimethylisoxazol-4-yl)-3-hydroxyindolin-2-one] are 200 nM and 425 nM.
Taken in the same sequence, the figures for `Cc1ccccc1C1(O)C(=O)Nc2ccc(-c3c(C)noc3C)cc21` (stereo not shown) [Compound 1.7, 5-(3,5-dimethylisoxazol-4-yl)-3-hydroxy-3-o-tolylindolin-2-one] were 570 nM and 1500 nM.
As to `COc1ccc(C2(O)C(=O)Nc3ccc(-c4c(C)noc4C)cc32)cc1` (stereo not shown) [Compound 1.9, 5-(3,5-dimethylisoxazol-4-yl)-3-hydroxy-3-(4-methoxyphenyl)indolin-2-one], in experiment [1], the IC50 is 410 nM. Moreover, the EC50 in the experiment with MV4-11 (72 h) was 536 nM.
For the compound `Cc1noc(C)c1-c1ccc2c(c1)C(CCCN1CCC(O)CC1)(c1ccccc1)C(=O)N2` (stereo not shown) [Compound 3.9, 5-(3,5-Dimethylisoxazol-4-yl)-3-(3-(4-hydroxypiperidin-1-yl)propyl)-3-phenylindolin-2-one], in experiment [1], the IC50 was determined as 120 nM. The EC50 with MV4-11 (MV4-11, 72 h) came to 377 nM.
With `Cc1cc(C2(O)C(=O)Nc3ccc(-c4c(C)noc4C)cc32)ccc1F` (stereo not shown) [Compound 1.6, 5-(3,5-dimethylisoxazol-4-yl)-3-(4-fluoro-3-methylphenyl)-3-hydroxyindolin-2-one], the IC50 in experiment [1] came out at 380 nM. The response with MV4-11 (72 h) was half-maximal at 594 nM (EC50).
On to `Cc1noc(C)c1-c1ccc2c(c1)C(c1ccccc1)(N1CCC(O)CC1)C(=O)N2` (stereo not shown) [Compound 2.4, 5-(3,5-dimethylisoxazol-4-yl)-3-(4-hydroxypiperidin-1-yl)-3-phenylindolin-2-one], for which the half-maximal inhibitory concentration (IC50) in experiment [1] was found to be 36 nM. This compound showed an EC50 in the experiment on MV4-11 (MV4-11, 72 h) of 76 nM.
Taken in the same sequence, the figures for `Cc1noc(C)c1-c1ccc2c(c1)C(C1CCCC1)(N1CCOCC1)C(=O)N2` (stereo not shown) [Compound 2.34, 3-cyclopentyl-5-(3,5-dimethylisoxazol-4-yl)-3-morpholinoindolin-2-one] were 120 nM and 438 nM.
Taken in the same sequence, the figures for `Cc1noc(C)c1-c1ccc2c(c1)C(c1ccsc1)(N1CCC[C@H](N)C1)C(=O)N2` (single isomer, unassigned) [Compound 4.7a] were 24 nM and 35 nM.
